Experimental data published in ChEMBL document CHEMBL1201862, “PubChem BioAssay data set” (2004).
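Growth conditions: 96-well plates. Treatment: test compound, 48 hours, 5 concentrations. Analysis: linear interpolation between bracketing concentrations; unreached endpoints set to highest concentration. Here, GI50 denotes the concentration required for 50% inhibition of growth.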 Calls of active or inactive are those of the source. Cut-off read from the data, not from the text of the source: active = GI50 up to about 1.1 µM and inactive = higher.

Tests used:
Test in all cases: inhibition of tumour cell growth, NCI panel, 48 h
CCRF-CEM = test system: CCRF-CEM
HCT-15 = test system: HCT-15
HOP-62 = test system: HOP-62
IGROV-1 = test system: IGROV-1
M14 = test system: M14
MDA-MB-231 = test system: MDA-MB-231
MDA-MB-435 = test system: MDA-MB-435
Malme-3M = test system: Malme-3M
NCI-H226 = test system: NCI-H226
NCI-H460 = test system: NCI-H460
OVCAR-8 = test system: OVCAR-8
SF-539 = test system: SF-539
SK-MEL-2 = test system: SK-MEL-2
SK-OV-3 = test system: SK-OV-3
SW-620 = test system: SW-620
T47D = test system: T47D
UACC-257 = test system: UACC-257
UO-31 = test system: UO-31
NCI-H522 = test system: NCI-H522
RXF 393 = test system: RXF 393

Structure (SMILES): CN(C)c1ccc(/C(Br)=C2\OC(=O)c3ccccc32)cc1
- GI50 (CCRF-CEM): 51.4 µM (inactive)
- GI50 (HCT-15): 87.3 µM
- GI50 (HOP-62): > 100 µM (inactive)
- GI50 (IGROV-1): > 100 µM (inactive)
- GI50 (M14): > 100 µM (inactive)
- GI50 (MDA-MB-231): > 100 µM (inactive)
- GI50 (MDA-MB-435): 36.1 µM (inactive)
- GI50 (Malme-3M): 67.1 µM (inactive)
- GI50 (NCI-H226): 24.4 µM (inactive)
- GI50 (NCI-H460): > 100 µM (inactive)
- GI50 (OVCAR-8): > 100 µM (inactive)
- GI50 (SF-539): > 100 µM (inactive)
- GI50 (SK-MEL-2): 92.9 µM (inactive)
- GI50 (SK-OV-3): > 100 µM (inactive)
- GI50 (SW-620): 93.5 µM (inactive)
- GI50 (T47D): 11.3 µM (inactive)
- GI50 (UACC-257): > 100 µM (inactive)
- GI50 (UO-31): > 100 µM (inactive)

Structure (SMILES): OCCN(C1=NCCN1)/[N+](=C/c1ccc(Cl)cc1)[CH-]c1ccc(Cl)cc1
- GI50 (CCRF-CEM): 61.8 µM (inactive)
- GI50 (HCT-15): 61.8 µM
- GI50 (HOP-62): > 100 µM (inactive)
- GI50 (IGROV-1): > 100 µM (inactive)
- GI50 (M14): 83.9 µM (inactive)
- GI50 (MDA-MB-231): > 100 µM (inactive)
- GI50 (MDA-MB-435): > 100 µM (inactive)
- GI50 (Malme-3M): > 100 µM (inactive)
- GI50 (NCI-H226): > 100 µM (inactive)
- GI50 (NCI-H460): > 100 µM (inactive)
- GI50 (NCI-H522): 84.3 µM (inactive)
- GI50 (OVCAR-8): > 100 µM (inactive)
- GI50 (RXF 393): 15.5 µM (inactive)
- GI50 (SF-539): > 100 µM (inactive)
- GI50 (SK-MEL-2): 27.1 µM (inactive)
- GI50 (SK-OV-3): > 100 µM (inactive)
- GI50 (SW-620): > 100 µM (inactive)
- GI50 (UACC-257): > 100 µM (inactive)
- GI50 (UO-31): > 100 µM (inactive)

Structure (SMILES): O=c1[nH]nc(-c2ccc([N+](=O)[O-])cc2)[nH]1
- GI50 (CCRF-CEM): > 100 µM (inactive)
- GI50 (HCT-15): > 100 µM
- GI50 (HOP-62): > 100 µM (inactive)
- GI50 (IGROV-1): > 100 µM (inactive)
- GI50 (M14): > 100 µM (inactive)
- GI50 (MDA-MB-435): > 100 µM (inactive)
- GI50 (Malme-3M): > 100 µM (inactive)
- GI50 (NCI-H226): > 100 µM (inactive)
- GI50 (NCI-H460): > 100 µM (inactive)
- GI50 (NCI-H522): > 100 µM (inactive)
- GI50 (OVCAR-8): > 100 µM (inactive)
- GI50 (RXF 393): > 100 µM (inactive)
- GI50 (SF-539): > 100 µM (inactive)
- GI50 (SK-MEL-2): > 100 µM (inactive)
- GI50 (SW-620): > 100 µM (inactive)
- GI50 (T47D): > 100 µM (inactive)
- GI50 (UACC-257): > 100 µM (inactive)
- GI50 (UO-31): > 100 µM (inactive)

Structure (SMILES): CCCCCCCCCCCCC(=O)OC(c1cnco1)c1nc(C(O)CC(O)C(O)C(C)O)co1 (centres undefined)
- GI50 (CCRF-CEM): 0.284 µM (active)
- GI50 (HCT-15): 9.44 µM
- GI50 (HOP-62): 2.65 µM (inactive)
- GI50 (IGROV-1): 0.339 µM (active)
- GI50 (M14): 0.491 µM (active)
- GI50 (MDA-MB-231): 1.89 µM (inactive)
- GI50 (Malme-3M): 0.828 µM (active)
- GI50 (NCI-H226): 9.18 µM (inactive)
- GI50 (NCI-H460): < 0.039 µM (active)
- GI50 (NCI-H522): 0.787 µM (active)
- GI50 (OVCAR-8): 0.299 µM (active)
- GI50 (RXF 393): 1.38 µM (inactive)
- GI50 (SF-539): 0.942 µM (active)
- GI50 (SK-MEL-2): 0.63 µM (active)
- GI50 (SK-OV-3): 3.94 µM (inactive)
- GI50 (SW-620): 0.114 µM (active)
- GI50 (T47D): 4.71 µM (inactive)
- GI50 (UACC-257): 0.755 µM (active)
- GI50 (UO-31): 8.97 µM (inactive)

Structure (SMILES): CN1CCN(/C(N)=C(\C#N)C(=O)Nc2ccccc2)CC1
- GI50 (CCRF-CEM): > 100 µM (inactive)
- GI50 (HCT-15): > 100 µM
- GI50 (HOP-62): > 100 µM (inactive)
- GI50 (IGROV-1): > 100 µM (inactive)
- GI50 (M14): > 100 µM (inactive)
- GI50 (MDA-MB-435): > 100 µM (inactive)
- GI50 (NCI-H226): > 100 µM (inactive)
- GI50 (NCI-H460): > 100 µM (inactive)
- GI50 (OVCAR-8): > 100 µM (inactive)
- GI50 (SF-539): > 100 µM (inactive)
- GI50 (SK-MEL-2): > 100 µM (inactive)
- GI50 (SK-OV-3): > 100 µM (inactive)
- GI50 (SW-620): > 100 µM (inactive)
- GI50 (T47D): > 100 µM (inactive)
- GI50 (UACC-257): > 100 µM (inactive)
- GI50 (UO-31): > 100 µM (inactive)

Structure (SMILES): CCN(CC)CCNC(=O)c1ccc(C)c(OCc2ccccc2)c1[N+](=O)[O-]
- GI50 (CCRF-CEM): 31.2 µM (inactive)
- GI50 (HCT-15): 21 µM
- GI50 (HOP-62): 28.6 µM (inactive)
- GI50 (IGROV-1): 62.8 µM (inactive)
- GI50 (M14): 17.8 µM (inactive)
- GI50 (MDA-MB-231): 35.6 µM (inactive)
- GI50 (Malme-3M): 16.9 µM (inactive)
- GI50 (NCI-H226): 44.8 µM (inactive)
- GI50 (NCI-H460): 36.6 µM (inactive)
- GI50 (NCI-H522): 27 µM (inactive)
- GI50 (OVCAR-8): > 100 µM (inactive)
- GI50 (RXF 393): 52.5 µM (inactive)
- GI50 (SF-539): 33.7 µM (inactive)
- GI50 (SK-MEL-2): 21.2 µM (inactive)
- GI50 (SK-OV-3): 34.2 µM (inactive)
- GI50 (SW-620): 18.3 µM (inactive)
- GI50 (T47D): 20.7 µM (inactive)
- GI50 (UACC-257): 19.1 µM (inactive)
- GI50 (UO-31): 21 µM (inactive)
